According to patent US9127021B2, “Hepatitis C virus inhibitors” (priority 2010, dated 2015):
Like-named read-outs stand apart in the source and are kept apart here.

Key:
HCV 1a genotype replicon = assay: HCV genotype 1a replicon assay (qRT-PCR or luciferase); assay type: cell-based; settings: Hepatitis C virus
HCV 1b genotype replicon = assay: HCV genotype 1b replicon assay (qRT-PCR or luciferase); assay type: cell-based; settings: Hepatitis C virus
From the text: HCV replicon cell lines (kindly provided by R. Bartenschlager) isolated from colonies as described by Lohman et al. (Lohman et al. (1999) Science 285: 110-113, expressly incorporated by reference in its entirety) and used for all experiments. The HCV replicon has the nucleic acid sequence set forth in EMBL Accession No.: AJ242651, the coding sequence of which is from nucleotides 1801 to 8406.
The coding sequence of the published HCV replicon was synthesized and subsequently assembled in a modified plasmid pBR322 (Promega, Madison, Wis.) using standard molecular biology techniques. […]
EC50 values of single agent compounds were determined by HCV RNA detection using quantitative RT-PCR, according to the manufacturer's instructions, with a TAQMAN® One-Step RT-PCR Master Mix Reagents Kit (Cat#AB 4309169, Applied Biosystems) on an ABI Model 7500 thermocycler. EC50 values of combinations are similarly determined by HCV RNA detection using quantitative RT-PCR. The TAQMAN primers to use for detecting and quantifying HCV RNA obtained from Integrated DNA Technologies. HCV RNA is normalized to GAPDH RNA levels in drug-treated cells, which is detected and quantified using the Human GAPDH Endogenous Control Mix (Applied Biosystems, AB 4310884E). […] Chemical agent cytotoxicity is evaluated using an MTS assay according to the manufacturer's directions (Promega). […]

| Compound | EC50 (HCV 1a genotype replicon; read-out: 1a EC50) | EC50 (HCV 1a genotype replicon; read-out: Range (EC50 range against HCV 1a)) | EC50 (HCV 1b genotype replicon; read-out: 1b EC50) | EC50 (HCV 1b genotype replicon; read-out: Range (EC50 range against HCV 1b)) |
| --- | --- | --- | --- | --- |
| COC(=O)N[C@H](C(=O)N1CCC[C@H]1c1nc(-c2ccc(-c3ccc4c(c3)COCCCCO[C@H](C)[C@H](NC(=O)OC)C(=O)N3CCC[C@H]3c3nc-4c[nH]3)cc2)c[nH]1)C(C)C [Compound 346] | 2.4 nM | > 1 nM | – | – |
| COC(=O)N[C@H]1CCCCOCc2cc(-c3ccc4cc(-c5c[nH]c([C@@H]6CCCN6C(=O)[C@@H](NC(=O)OC)C(C)C)n5)ccc4c3)ccc2NC(=O)[C@@H]2CCCN2C1=O [Compound 350] | – | – | 0.05 nM | < 0.1 nM |
